Assay results from patent US8815811B2, “Peptides and methods for their preparation and use” (Eli Lilly and Company, priority 2010, dated 2014).
Where no end group is shown, it is not given here. [ ]: non-standard residue; d: D form. 1Nal = N[C@@H](Cc1cccc2ccccc12)C(=O)O; Aib = CC(C)(N)C(=O)O

Test system: diet-induced obese Long Evans rats
Experiment: Effects on food intake, body weight, body composition and plasma lipids in DIO Long Evans rats
Type: in vivo
Description: Four to five months old male diet-induced obese Long Evans rats are used. Animals are individually housed in a temperature-controlled (24° C.) facility with a 12 hour light/dark cycle (lights on 22:00), and have free access to food (diet TD95217) and water. Animals are acclimated to the facility for at least 2 weeks. On day 0, body composition is determined by QNMR and rats are randomized to respective groups (n=6/group) based on body weight, % fat, and % lean mass. Compound is administered by subcutaneous injection on days 1, 4, 8, 11, and 15. […] After CO2 euthanasia, blood samples are taken by cardiac stick for analysis of exposure determination.

## Aib^2, Aib^13, Nal^22, Aib^29, Cys^43(PEG20K), Cys^44 (PEG20K)-GIP (Y[Aib]EGTFTSDYSI[Aib]LDKIAQRA[1Nal]VQWLIA[Aib]KGKKQEWKHQITQC(PEG 20 kDa)C(PEG 20 kDa)-NH2) [Example 4]
10 nmol/Kg
  total cholesterol (plasma): 110 mg/dL
  triglycerides (plasma): 488.7 mg/dL
30 nmol/Kg
  free fatty acids (plasma): 0.82 mEq/L
  total cholesterol (plasma): 104 mg/dL
  triglycerides (plasma): 212.2 mg/dL
30 nmol/Kg over 16 days
  fat mass reduced: 1.8%
  lean mass increased: 0.4%
100 nmol/Kg over 16 days
  fat mass reduced: 3.2%
  lean mass increased: 1.8%
Over 16 days
  changes in body weight and body composition compared to vehicle-treated DIO rats: increasing the percentage of lean mass and decreasing the percentage of fat mass
Versus vehicle
  amount of free fatty acids: increased
  amounts of plasma lipids, including triglycerides and total cholesterol: lowered
